Assay results taken from patent US10414811B2, “Protease-resistant lipidated GLP-1 analogs” (MEDIMMUNE LIMITED, priority 2015, dated 2019).
Like-named read-outs stand apart in the source and are kept apart here. Numbered stars: 1 amine (or outer) side, 2 acyl side, 3 side chain; on linkers, the order of the positions; unused ones are H or OH. Square brackets hold non-standard residues; d marks the D form. Side chains are listed from the residue outwards. Peptide text beside a SMILES is read from it. * marks the point of attachment. γGlu = O=C(O)[C@H](CCC(=O)[*:2])N[*:1]; αMeF = C[C@](N)(Cc1ccccc1)C(=O)O; αMeK = C[C@](N)(CCCCN)C(=O)O; Lauroyl = CCCCCCCCCCCC(=O)*; αMeS = C[C@](N)(CO)C(=O)O; AEEA = NCCOCCOCC(=O)O; Aib = CC(C)(N)C(=O)O

What was measured:
Type in all cases: cell-based
Conditions in all cases: tris-lipidated peptides
[1] = biological target: T1, human GLP-1 receptor (GLP-1R) (Homo sapiens, UniProt P43220); experiment: cAMP assay, human GLP-1R cells
T1 construct: expressed in transfected cells
Procedure, shortened: (§1)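 Peptide-stimulated cAMP measured by two-step HTRF after a 30 min room-temperature incubation with receptor-expressing cells (hGLP-1R, hGIPR at 1×10^5 cells/ml; hGCGR at 2×10^5 cells/ml). Duplicate dilutions; EC50 from 4-parameter logistic fit of % Delta F.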

[2] = biological target: T2, human glucagon receptor (GCGR) (Homo sapiens, UniProt P47871); experiment: cAMP assay, human GCGR cells
T2 construct: expressed in transfected cells
Procedure, shortened: as §1

[3] = biological target: T3, human glucose-dependent insulinotropic peptide receptor (GIPR) (Homo sapiens, UniProt P48546); experiment: cAMP assay, human GIPR cells
T3 construct: expressed in transfected cells
T3 sequence (P48546 22-466): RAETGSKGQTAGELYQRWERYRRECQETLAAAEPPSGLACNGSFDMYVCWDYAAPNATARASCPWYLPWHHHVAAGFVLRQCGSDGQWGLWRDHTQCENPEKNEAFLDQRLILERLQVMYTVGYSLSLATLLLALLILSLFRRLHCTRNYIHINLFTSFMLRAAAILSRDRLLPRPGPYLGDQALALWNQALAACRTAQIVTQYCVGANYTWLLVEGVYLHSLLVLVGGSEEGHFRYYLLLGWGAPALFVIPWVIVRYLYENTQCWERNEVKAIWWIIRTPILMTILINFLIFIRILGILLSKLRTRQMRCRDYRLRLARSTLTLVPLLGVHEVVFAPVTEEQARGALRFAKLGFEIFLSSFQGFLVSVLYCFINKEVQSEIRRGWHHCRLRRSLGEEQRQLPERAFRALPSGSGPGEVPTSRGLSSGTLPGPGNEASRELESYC
Procedure, shortened: as §1

[4] = mean of n1 and n2, read-out: Primary assay EC50 Mean pM GLP-1R
[5] = replicate n1, read-out: Primary assay EC50 GLP-1R n1
[6] = replicate n2, read-out: Primary assay EC50 GLP-1R n2
[7] = second replicate, read-out: Primary assay EC50 Gluc-R (n2)
[8] = first replicate, read-out: Primary assay EC50 GIP-R (n1)
[9] = first replicate, read-out: Primary assay EC50 Gluc-R (n1)

T1 sequence (P43220 24-463): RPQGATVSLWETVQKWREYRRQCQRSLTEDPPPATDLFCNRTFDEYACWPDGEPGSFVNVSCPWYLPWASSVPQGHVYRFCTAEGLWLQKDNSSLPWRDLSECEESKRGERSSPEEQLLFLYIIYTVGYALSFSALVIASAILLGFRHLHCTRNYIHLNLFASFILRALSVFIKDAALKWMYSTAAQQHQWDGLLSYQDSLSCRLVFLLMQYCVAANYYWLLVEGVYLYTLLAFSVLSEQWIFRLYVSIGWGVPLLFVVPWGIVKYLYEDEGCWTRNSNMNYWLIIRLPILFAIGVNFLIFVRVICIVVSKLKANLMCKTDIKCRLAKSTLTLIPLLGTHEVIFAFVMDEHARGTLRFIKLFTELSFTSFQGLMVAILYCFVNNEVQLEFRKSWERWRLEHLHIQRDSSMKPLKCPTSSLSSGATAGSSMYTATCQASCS
T2 sequence (P47871 26-477): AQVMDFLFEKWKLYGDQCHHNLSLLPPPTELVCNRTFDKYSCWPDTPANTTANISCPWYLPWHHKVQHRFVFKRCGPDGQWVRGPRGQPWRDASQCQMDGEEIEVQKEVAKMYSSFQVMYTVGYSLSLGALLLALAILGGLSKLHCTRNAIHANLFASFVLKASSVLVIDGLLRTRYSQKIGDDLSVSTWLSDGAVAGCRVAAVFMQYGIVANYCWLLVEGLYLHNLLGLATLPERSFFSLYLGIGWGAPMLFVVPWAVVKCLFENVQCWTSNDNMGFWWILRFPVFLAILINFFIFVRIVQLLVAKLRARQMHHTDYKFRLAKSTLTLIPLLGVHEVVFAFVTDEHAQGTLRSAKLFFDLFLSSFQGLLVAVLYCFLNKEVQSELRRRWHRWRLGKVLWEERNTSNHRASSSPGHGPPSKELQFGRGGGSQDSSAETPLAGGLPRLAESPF

## CCCCCCCCCCCC(=O)N[C@@H](CCC(=O)NCCOCCOCC(=O)NCCOCCOCC(=O)NCCCC[C@H](NC(=O)CNC(=O)[C@H](CCC(=O)O)NC(=O)[C@H](CC(C)C)NC(=O)[C@H](Cc1ccc(O)cc1)NC(=O)[C@H](CO)NC(=O)[C@H](CO)NC(=O)[C@H](CCCCNC(=O)COCCOCCNC(=O)COCCOCCNC(=O)CC[C@H](NC(=O)CCCCCCCCCCC)C(=O)O)NC(=O)[C@H](CC(=O)O)NC(=O)[C@H](CO)NC(=O)[C@@H](NC(=O)[C@](C)(Cc1ccccc1)NC(=O)[C@H](CO)NC(=O)CNC(=O)[C@H](CCC(=O)O)NC(=O)C(C)(C)NC(=O)[C@@H](N)Cc1c[nH]cn1)[C@@H](C)O)C(=O)N[C@@H](C)C(=O)N[C@@H](C)C(=O)N[C@@](C)(CCCCN)C(=O)N[C@@H](CCC(=O)O)C(=O)N[C@@H](Cc1ccccc1)C(=O)N[C@H](C(=O)N[C@@H](CCCCNC(=O)COCCOCCNC(=O)COCCOCCNC(=O)CC[C@H](NC(=O)CCCCCCCCCCC)C(=O)O)C(=O)N[C@@H](Cc1ccccc1)C(=O)N[C@H](C(=O)N[C@H](C(=O)N[C@@H](CCC(=O)O)C(=O)NCC(=O)NCC(N)=O)C(C)C)C(C)C)[C@@H](C)CC)C(=O)O [compound 440] (H-H[Aib]EGS[αMeF]TSDK([AEEA-AEEA-γGlu-Lauroyl])SSYLEGK([AEEA-AEEA-γGlu-Lauroyl])AA[αMeK]EFIK([AEEA-AEEA-γGlu-Lauroyl])FVVEGG-NH2; N-terminus assumed)
[1]; [4]
  EC50: 130 pM
[1]; [5]
  EC50: 96.7 pM
[1]; [6]
  EC50: 164 pM
[2]; [7]
  EC50: 19.7 nM
[3]; [8]
  EC50: 19.7 nM

## CCCCCCCCCCCC(=O)N[C@@H](CCC(=O)NCCOCCOCC(=O)NCCOCCOCC(=O)NCCCC[C@H](NC(=O)[C@H](CCC(=O)O)NC(=O)CNC(=O)[C@H](CCC(=O)O)NC(=O)[C@H](CC(C)C)NC(=O)[C@H](Cc1ccc(O)cc1)NC(=O)[C@H](CO)NC(=O)[C@H](CO)NC(=O)[C@H](CCCCNC(=O)COCCOCCNC(=O)COCCOCCNC(=O)CC[C@H](NC(=O)CCCCCCCCCCC)C(=O)O)NC(=O)[C@H](CC(=O)O)NC(=O)[C@H](CO)NC(=O)[C@@H](NC(=O)[C@](C)(Cc1ccccc1)NC(=O)[C@H](CO)NC(=O)CNC(=O)[C@H](CCC(=O)O)NC(=O)C(C)(C)NC(=O)[C@@H](N)Cc1c[nH]cn1)[C@@H](C)O)C(=O)N[C@@H](C)C(=O)N[C@@](C)(CCCCN)C(=O)N[C@@H](CCC(=O)O)C(=O)N[C@@H](Cc1ccccc1)C(=O)N[C@H](C(=O)N[C@@H](CCCCNC(=O)COCCOCCNC(=O)COCCOCCNC(=O)CC[C@H](NC(=O)CCCCCCCCCCC)C(=O)O)C(=O)N[C@@H](Cc1ccccc1)C(=O)N[C@H](C(=O)N[C@H](C(=O)N[C@@H](CCC(=O)O)C(=O)NCC(=O)NCC(N)=O)C(C)C)C(C)C)[C@@H](C)CC)C(=O)O [compound 441] (H-H[Aib]EGS[αMeF]TSDK([AEEA-AEEA-γGlu-Lauroyl])SSYLEGEK([AEEA-AEEA-γGlu-Lauroyl])A[αMeK]EFIK([AEEA-AEEA-γGlu-Lauroyl])FVVEGG-NH2)
[1]; [4]
  EC50: 176 pM
[1]; [5]
  EC50: 110 pM
[1]; [6]
  EC50: 241 pM
[2]; [7]
  EC50: 19.5 nM
[3]; second replicate, read-out: Primary assay EC50 GIP-R (n2)
  EC50: 19.5 nM

## CCCCCCCCCCCC(=O)N[C@@H](CCC(=O)NCCOCCOCC(=O)NCCOCCOCC(=O)NCCCC[C@H](NC(=O)[C@H](CC(=O)O)NC(=O)[C@H](CO)NC(=O)[C@@H](NC(=O)[C@](C)(Cc1ccccc1)NC(=O)[C@H](CO)NC(=O)CNC(=O)[C@H](CCC(=O)O)NC(=O)C(C)(C)NC(=O)[C@@H](N)Cc1c[nH]cn1)[C@@H](C)O)C(=O)N[C@@H](CO)C(=O)N[C@@H](CO)C(=O)N[C@@H](Cc1ccc(O)cc1)C(=O)N[C@@H](CC(C)C)C(=O)N[C@@H](CCC(=O)O)C(=O)NCC(=O)N[C@@H](CCC(=O)O)C(=O)N[C@@H](C)C(=O)N[C@@H](C)C(=O)N[C@@](C)(CCCCN)C(=O)N[C@@H](CCCCNC(=O)COCCOCCNC(=O)COCCOCCNC(=O)CC[C@H](NC(=O)CCCCCCCCCCC)C(=O)O)C(=O)N[C@@H](Cc1ccccc1)C(=O)N[C@H](C(=O)N[C@@H](CCCCNC(=O)COCCOCCNC(=O)COCCOCCNC(=O)CC[C@H](NC(=O)CCCCCCCCCCC)C(=O)O)C(=O)N[C@@H](Cc1ccccc1)C(=O)N[C@H](C(=O)N[C@H](C(=O)N[C@@H](CCC(=O)O)C(=O)NCC(=O)NCC(N)=O)C(C)C)C(C)C)[C@@H](C)CC)C(=O)O [compound 442] (H-H[Aib]EGS[αMeF]TSDK([AEEA-AEEA-γGlu-Lauroyl])SSYLEGEAA[αMeK]K([AEEA-AEEA-γGlu-Lauroyl])FIK([AEEA-AEEA-γGlu-Lauroyl])FVVEGG-NH2; N-terminus assumed)
[1]; [4]
  EC50: 82 pM
[1]; [5]
  EC50: 60.9 pM
[1]; [6]
  EC50: 103 pM
[2]; [7]
  EC50: 19.7 nM
[3]; [8]
  EC50: 19.7 nM

## CCCCCCCCCCCC(=O)N[C@@H](CCC(=O)NCCOCCOCC(=O)NCCOCCOCC(=O)NCCCC[C@H](NC(=O)[C@H](CCC(=O)O)NC(=O)[C@H](CC(C)C)NC(=O)[C@H](CCCCNC(=O)COCCOCCNC(=O)COCCOCCNC(=O)CC[C@H](NC(=O)CCCCCCCCCCC)C(=O)O)NC(=O)[C@H](CO)NC(=O)[C@](C)(CO)NC(=O)[C@@H](NC(=O)[C@H](CC(=O)O)NC(=O)[C@H](CO)NC(=O)[C@@H](NC(=O)[C@](C)(Cc1ccccc1)NC(=O)[C@H](CO)NC(=O)CNC(=O)[C@H](CCC(=O)O)NC(=O)C(C)(C)NC(=O)[C@@H](N)Cc1c[nH]cn1)[C@@H](C)O)C(C)C)C(=O)N[C@@H](CCC(=O)O)C(=O)N[C@@H](C)C(=O)N[C@@H](C)C(=O)N[C@@](C)(CCCCN)C(=O)N[C@@H](CCC(=O)O)C(=O)N[C@@H](Cc1ccccc1)C(=O)N[C@H](C(=O)N[C@@H](CCCCNC(=O)COCCOCCNC(=O)COCCOCCNC(=O)CC[C@H](NC(=O)CCCCCCCCCCC)C(=O)O)C(=O)N[C@@H](Cc1ccccc1)C(=O)N[C@H](C(=O)N[C@H](C(=O)N[C@@H](CCC(=O)O)C(=O)NCC(=O)NCC(N)=O)C(C)C)C(C)C)[C@@H](C)CC)C(=O)O [compound 447] (H-H[Aib]EGS[αMeF]TSDV[αMeS]SK([AEEA-AEEA-γGlu-Lauroyl])LEK([AEEA-AEEA-γGlu-Lauroyl])EAA[αMeK]EFIK([AEEA-AEEA-γGlu-Lauroyl])FVVEGG-NH2; N-terminus assumed)
[1]; [4]
  EC50: 150 pM
[1]; [5]
  EC50: 123 pM
[1]; [6]
  EC50: 176 pM
[2]; [9]
  EC50: 19.7 nM
[3]; [8]
  EC50: 19.7 nM

## CCCCCCCCCCCC(=O)N[C@@H](CCC(=O)NCCOCCOCC(=O)NCCOCCOCC(=O)NCCCC[C@H](NC(=O)CNC(=O)[C@H](CCC(=O)O)NC(=O)[C@H](CC(C)C)NC(=O)[C@H](CCCCNC(=O)COCCOCCNC(=O)COCCOCCNC(=O)CC[C@H](NC(=O)CCCCCCCCCCC)C(=O)O)NC(=O)[C@H](CO)NC(=O)[C@](C)(CO)NC(=O)[C@@H](NC(=O)[C@H](CC(=O)O)NC(=O)[C@H](CO)NC(=O)[C@@H](NC(=O)[C@](C)(Cc1ccccc1)NC(=O)[C@H](CO)NC(=O)CNC(=O)[C@H](CCC(=O)O)NC(=O)C(C)(C)NC(=O)[C@@H](N)Cc1c[nH]cn1)[C@@H](C)O)C(C)C)C(=O)N[C@@H](C)C(=O)N[C@@H](C)C(=O)N[C@@](C)(CCCCN)C(=O)N[C@@H](CCC(=O)O)C(=O)N[C@@H](Cc1ccccc1)C(=O)N[C@H](C(=O)N[C@@H](CCCCNC(=O)COCCOCCNC(=O)COCCOCCNC(=O)CC[C@H](NC(=O)CCCCCCCCCCC)C(=O)O)C(=O)N[C@@H](Cc1ccccc1)C(=O)N[C@H](C(=O)N[C@H](C(=O)N[C@@H](CCC(=O)O)C(=O)NCC(=O)NCC(N)=O)C(C)C)C(C)C)[C@@H](C)CC)C(=O)O [compound 448] (H-H[Aib]EGS[αMeF]TSDV[αMeS]SK([AEEA-AEEA-γGlu-Lauroyl])LEGK([AEEA-AEEA-γGlu-Lauroyl])AA[αMeK]EFIK([AEEA-AEEA-γGlu-Lauroyl])FVVEGG-NH2)
[1]; [4]
  EC50: 92.4 pM
[1]; [5]
  EC50: 78.8 pM
[1]; [6]
  EC50: 106 pM
[2]; [7]
  EC50: 19.9 nM
[3]; [8]
  EC50: 19.9 nM

## CCCCCCCCCCCC(=O)N[C@@H](CCC(=O)NCCOCCOCC(=O)NCCOCCOCC(=O)NCCCC[C@H](NC(=O)[C@H](CCC(=O)O)NC(=O)CNC(=O)[C@H](CCC(=O)O)NC(=O)[C@H](CC(C)C)NC(=O)[C@H](CCCCNC(=O)COCCOCCNC(=O)COCCOCCNC(=O)CC[C@H](NC(=O)CCCCCCCCCCC)C(=O)O)NC(=O)[C@H](CO)NC(=O)[C@](C)(CO)NC(=O)[C@@H](NC(=O)[C@H](CC(=O)O)NC(=O)[C@H](CO)NC(=O)[C@@H](NC(=O)[C@](C)(Cc1ccccc1)NC(=O)[C@H](CO)NC(=O)CNC(=O)[C@H](CCC(=O)O)NC(=O)C(C)(C)NC(=O)[C@@H](N)Cc1c[nH]cn1)[C@@H](C)O)C(C)C)C(=O)N[C@@H](C)C(=O)N[C@@](C)(CCCCN)C(=O)N[C@@H](CCC(=O)O)C(=O)N[C@@H](Cc1ccccc1)C(=O)N[C@H](C(=O)N[C@@H](CCCCNC(=O)COCCOCCNC(=O)COCCOCCNC(=O)CC[C@H](NC(=O)CCCCCCCCCCC)C(=O)O)C(=O)N[C@@H](Cc1ccccc1)C(=O)N[C@H](C(=O)N[C@H](C(=O)N[C@@H](CCC(=O)O)C(=O)NCC(=O)NCC(N)=O)C(C)C)C(C)C)[C@@H](C)CC)C(=O)O [compound 449] (H-H[Aib]EGS[αMeF]TSDV[αMeS]SK([AEEA-AEEA-γGlu-Lauroyl])LEGEK([AEEA-AEEA-γGlu-Lauroyl])A[αMeK]EFIK([AEEA-AEEA-γGlu-Lauroyl])FVVEGG-NH2; N-terminus assumed)
[1]; [4]
  EC50: 246 pM
[1]; [5]
  EC50: 216 pM
[1]; [6]
  EC50: 276 pM
[2]; [9]
  EC50: 19.7 nM
[3]; [8]
  EC50: 19.7 nM
